Source: US7928182B2, “Glycerol polycarbonate, organic compositions containing same and method for obtaining said compositions” (Condat S.A., priority 2004, dated 2011)

What was measured:
Type in all cases: physicochemical
[1] = Combustion heat (ASTM D240); settings: reference samples and control
Procedure: b) The combustion heat (kJ/g) was also measured according to standard ASTM D240. The combustion heat characterises the calorific energy released by a burning compound. The higher this value is, the better fuel a compound is and the more the “fire” is maintained by this factor, which is the temperature.

[2] = Surface tension (ring tensiometer); settings: 25° C., glycerol carbonate alone; in mN/m (unit assumed)
[3] = Density (densimeter); settings: 25° C., glycerol carbonate alone; in g/cm3 (unit assumed)

**Q.** For `CCCCCCC` [Heptane], which “Combustion heat” value [1] is on record?
**A.** 40.2 kJ/g

**Q.** With `O=C1OCC(CO)O1` (centres unmarked) [glycerol carbonate] as the compound, how does the Surface tension [2] read?
**A.** 53.81

**Q.** What about the Density [3] of the same compound?
**A.** 1.386

**Q.** For `CO` [Methanol], which “Combustion heat” value [1] is on record?
**A.** 19.6 kJ/g

**Q.** For `CCO` [Ethanol], which “Combustion heat” value [1] is on record?
**A.** 26.4 kJ/g
